Test results: PubChem BioAssay (NCI)
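Briefly, cells in 96-well plates were exposed to five compound concentrations for 48 h, and endpoints were estimated by linear interpolation. TGI: concentration producing complete growth inhibition.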

How the values were obtained:
Assay in all cases: growth of human tumour cells (NCI), 48 h
[1] = test system: MOLT-4 leukemia
[2] = test system: SK-MEL-28 melanoma
[3] = test system: NCI-H226 lung
[4] = test system: TK-10 renal
[5] = test system: HCC-2998 colon
[6] = test system: SK-MEL-2 melanoma
[7] = test system: NCI-H23 lung
[8] = test system: SF-539 CNS
[9] = test system: NCI-H522 lung
[10] = test system: OVCAR-4 ovarian
[11] = test system: COLO 205 colon
[12] = test system: KM12 colon
[13] = test system: RPMI-8226 leukemia
[14] = test system: BT-549 breast
[15] = test system: HOP-62 NSCLC
[16] = test system: MALME-3M melanoma
[17] = test system: HT29 colon
[18] = test system: SR leukemia
[19] = test system: LOX IMVI melanoma
[20] = test system: A498 renal
[21] = test system: MDA-N
[22] = test system: MDA-MB-231 breast
[23] = test system: HCT-15 colon
[24] = test system: HOP-92 NSCLC
[25] = test system: HS 578T breast
[26] = test system: OVCAR-3 ovarian
[27] = test system: PC-3 prostate
[28] = test system: MCF7 breast
[29] = test system: A549 NSCLC
[30] = test system: U251 CNS
[31] = test system: RXF 393 renal
[32] = test system: HCT-116 colon
[33] = test system: SNB-19 CNS
[34] = test system: ACHN renal
[35] = test system: NCI-H460 lung
[36] = test system: EKVX NSCLC
[37] = test system: IGROV1 ovarian
[38] = test system: SF-268 CNS
[39] = test system: CCRF-CEM leukemia
[40] = test system: UACC-257 melanoma
[41] = test system: T-47D breast
[42] = test system: M14 melanoma
[43] = test system: OVCAR-5 ovarian
[44] = test system: HL-60(TB) leukemia
[45] = test system: SN12C renal
[46] = test system: CAKI-1 renal
[47] = test system: DU-145 prostate
[48] = test system: UO-31 renal
[49] = test system: MDA-MB-435
[50] = test system: K-562 leukemia
[51] = test system: UACC-62 melanoma
[52] = test system: SK-OV-3 ovarian
[53] = test system: SW-620 colon
[54] = test system: 786-0 renal
[55] = test system: SF-295 CNS
[56] = test system: SK-MEL-5 melanoma
[57] = test system: SNB-75 CNS
[58] = test system: OVCAR-8 ovarian

COc1cccc2c(Nc3ccc(S(=O)(=O)Nc4ncccn4)cc3)c3ccc([N+](=O)[O-])cc3nc12
TGI [1]: 81.2 µM
TGI [2]: > 100 µM
TGI [3]: > 100 µM
TGI [4]: > 100 µM
TGI [5]: > 100 µM
TGI [6]: > 100 µM
TGI [7]: > 100 µM
TGI [8]: > 100 µM
TGI [9]: > 100 µM
TGI [10]: > 100 µM
TGI [11]: > 100 µM
TGI [12]: > 100 µM
TGI [13]: > 100 µM
TGI [14]: > 100 µM
TGI [15]: > 100 µM
TGI [16]: > 100 µM
TGI [17]: > 100 µM
TGI [18]: 13.9 µM
TGI [19]: > 100 µM
TGI [20]: > 100 µM
TGI [21]: > 100 µM
TGI [22]: > 100 µM
TGI [23]: > 100 µM
TGI [24]: > 100 µM
TGI [25]: > 100 µM
TGI [26]: > 100 µM
TGI [27]: > 100 µM
TGI [28]: > 100 µM
TGI [29]: > 100 µM
TGI [30]: > 100 µM
TGI [31]: > 100 µM
TGI [32]: > 100 µM
TGI [33]: > 100 µM
TGI [34]: > 100 µM
TGI [35]: > 100 µM
TGI [36]: > 100 µM
TGI [37]: > 100 µM
TGI [38]: > 100 µM
TGI [39]: > 100 µM
TGI [40]: > 100 µM
TGI [41]: > 100 µM
TGI [42]: > 100 µM
TGI [43]: > 100 µM
TGI [44]: 88.6 µM
TGI [45]: > 100 µM
TGI [46]: > 100 µM
TGI [47]: > 100 µM
TGI [48]: > 100 µM
TGI [49]: > 100 µM
TGI [50]: > 100 µM
TGI [51]: > 100 µM
TGI [52]: > 100 µM
TGI [53]: > 100 µM
TGI [54]: > 100 µM
TGI [55]: > 100 µM
TGI [56]: > 100 µM

CN(C(=O)c1ccccc1)C1CCCC(=O)CC1 (configuration not stated)
TGI [2]: > 100 µM
TGI [3]: > 100 µM
TGI [4]: > 100 µM
TGI [5]: > 100 µM
TGI [6]: > 100 µM
TGI [7]: > 100 µM
TGI [8]: > 100 µM
TGI [9]: > 100 µM
TGI [10]: > 100 µM
TGI [11]: > 100 µM
TGI [12]: > 100 µM
TGI [13]: > 100 µM
TGI [14]: > 100 µM
TGI [15]: > 100 µM
TGI [16]: > 100 µM
TGI [17]: > 100 µM
TGI [18]: > 100 µM
TGI [19]: > 100 µM
TGI [20]: > 100 µM
TGI [21]: > 100 µM
TGI [22]: > 100 µM
TGI [23]: > 100 µM
TGI [24]: > 100 µM
TGI [57]: > 100 µM
TGI [25]: > 100 µM
TGI [26]: > 100 µM
TGI [27]: > 100 µM
TGI [28]: > 100 µM
TGI [58]: > 100 µM
TGI [29]: > 100 µM
TGI [30]: > 100 µM
TGI [31]: > 100 µM
TGI [32]: > 100 µM
TGI [33]: > 100 µM
TGI [34]: > 100 µM
TGI [35]: > 100 µM
TGI [36]: > 100 µM
TGI [37]: > 100 µM
TGI [38]: > 100 µM
TGI [39]: > 100 µM
TGI [40]: > 100 µM
TGI [41]: > 100 µM
TGI [42]: > 100 µM
TGI [43]: > 100 µM
TGI [44]: > 100 µM
TGI [45]: > 100 µM
TGI [46]: > 100 µM
TGI [47]: > 100 µM
TGI [48]: > 100 µM
TGI [49]: > 100 µM
TGI [50]: > 100 µM
TGI [51]: > 100 µM
TGI [52]: > 100 µM
TGI [53]: > 100 µM
TGI [54]: > 100 µM
TGI [55]: > 100 µM
